Results from patent US20120264735A1 (priority 2009, published 2012).

target: T1, c-Met kinase (recombinant c-Met) (Homo sapiens, UniProt P08581); test: In vitro kinase assay I (homogeneous time-resolved fluorescence tyrosine kinase assay); format: biochemical
T1 construct: 0.27 nM recombinant c-Met
Outline: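 Biotinylated peptide (0.5 μM) phosphorylated by 0.2 nM recombinant c-Met with 50 μM MgATP, 60 min at room temperature, pH 7.4, 5% DMSO. EDTA stop; HTRF read with Eu-anti-phosphotyrosine antibody and streptavidin-APC. IC50 from 4-parameter logistic fit.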

T1 sequence (P08581 25-1390): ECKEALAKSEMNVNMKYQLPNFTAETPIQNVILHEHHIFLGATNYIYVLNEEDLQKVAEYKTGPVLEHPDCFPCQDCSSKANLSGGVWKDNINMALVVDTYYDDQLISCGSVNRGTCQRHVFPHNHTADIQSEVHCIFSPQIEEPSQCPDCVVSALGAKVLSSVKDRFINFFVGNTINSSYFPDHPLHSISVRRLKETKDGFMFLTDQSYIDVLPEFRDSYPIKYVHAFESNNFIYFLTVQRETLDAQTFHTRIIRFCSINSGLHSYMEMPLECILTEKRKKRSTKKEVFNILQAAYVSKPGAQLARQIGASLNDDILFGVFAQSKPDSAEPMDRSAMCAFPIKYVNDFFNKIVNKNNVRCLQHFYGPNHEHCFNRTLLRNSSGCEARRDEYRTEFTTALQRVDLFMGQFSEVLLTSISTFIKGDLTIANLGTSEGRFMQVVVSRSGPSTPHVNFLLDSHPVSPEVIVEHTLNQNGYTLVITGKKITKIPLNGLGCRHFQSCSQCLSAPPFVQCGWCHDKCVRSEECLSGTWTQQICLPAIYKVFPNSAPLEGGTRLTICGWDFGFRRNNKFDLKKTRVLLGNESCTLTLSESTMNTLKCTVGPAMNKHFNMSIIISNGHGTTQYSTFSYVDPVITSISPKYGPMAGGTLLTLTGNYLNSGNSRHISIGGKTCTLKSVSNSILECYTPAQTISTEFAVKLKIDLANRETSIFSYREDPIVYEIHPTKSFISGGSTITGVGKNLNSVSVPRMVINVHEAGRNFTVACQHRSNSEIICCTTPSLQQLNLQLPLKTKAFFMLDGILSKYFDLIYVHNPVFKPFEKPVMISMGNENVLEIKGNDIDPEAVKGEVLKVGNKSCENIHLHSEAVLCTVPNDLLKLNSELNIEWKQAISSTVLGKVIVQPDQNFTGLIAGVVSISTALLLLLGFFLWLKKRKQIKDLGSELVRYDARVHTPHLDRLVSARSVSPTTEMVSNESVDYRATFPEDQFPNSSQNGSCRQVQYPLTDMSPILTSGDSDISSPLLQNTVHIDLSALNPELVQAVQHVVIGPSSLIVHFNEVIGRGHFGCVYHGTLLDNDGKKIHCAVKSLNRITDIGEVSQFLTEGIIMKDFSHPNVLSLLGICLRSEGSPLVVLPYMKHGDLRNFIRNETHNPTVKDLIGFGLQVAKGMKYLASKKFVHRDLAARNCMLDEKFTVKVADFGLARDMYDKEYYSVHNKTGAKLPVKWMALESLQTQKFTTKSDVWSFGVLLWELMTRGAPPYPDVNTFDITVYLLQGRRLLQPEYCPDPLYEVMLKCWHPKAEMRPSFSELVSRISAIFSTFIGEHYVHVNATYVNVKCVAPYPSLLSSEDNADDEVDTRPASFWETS

Compound | IC50
O=c1ccn(-c2cc(F)cc(F)c2)nc1Cc1cccc(-c2ncc(OCc3ccccc3)cn2)c1 [Example 125, 3-{3-[5-(benzyloxy)pyrimidin-2-yl]benzyl}-1-(3,5-difluorophenyl)pyridazin-4(1H)-one] | < 100 nM
Cn1cc(-n2ccc(=O)c(Cc3cccc(-c4ncc(-c5cnoc5)cn4)c3)n2)cn1 [Example 423, 3-[3-(5-isoxazol-4-ylpyrimidin-2-yl)benzyl]-1-(1-methyl-1H-pyrazol-4-yl)pyridazin-4(1H)-one] | < 100 nM
Cn1cc(-n2ccc(=O)c(Cc3cccc(-c4ncc(OCCn5cncn5)cn4)c3)n2)cn1 [Example 271, 1-(1-methyl-1H-pyrazol-4-yl)-3-(3-{5-[2-(1H-1,2,4-triazol-1-yl)ethoxy]pyrimidin-2-yl}benzyl)pyridazin-4(1H)-one] | < 100 nM
CCOc1cnc(-c2cccc(Cc3nn(-c4cnn(CCO)c4)ccc3=O)c2)nc1 [Example 193, 3-[3-(5-ethoxypyrimidin-2-yl)benzyl]-1-[1-(2-hydroxyethyl)-1H-pyrazol-4-yl]pyridazin-4(1H)-one] | < 100 nM
C/C=C/c1cnc(-c2cccc(Cc3nn(-c4cnn(C)c4)ccc3=O)c2)nc1 [Example 400, 1-(1-methyl-1H-pyrazol-4-yl)-3-(3-{5-[(1E)-prop-1-en-1-yl]pyrimidin-2-yl}benzyl)pyridazin-4(1H)-one] | < 100 nM
COCCn1cnc(-c2cccc(Cc3nn(-c4cnn(C)c4)ccc3=O)c2)n1 [Example 66, 3-{3-[1-(2-methoxyethyl)-1H-1,2,4-triazol-3-yl]benzyl}-1-(1-methyl-1H-pyrazol-4-yl)pyridazin-4(1H)-one] | < 100 nM
O=c1ccn(-c2ccc(F)c(F)c2)nc1Cc1cccc(-c2ncc(OC3COC3)cn2)c1 [Example 326, 1-(3,4-difluorophenyl)-3-{3-[5-(oxetan-3-yloxy)pyrimidin-2-yl]benzyl}pyridazin-4(1H)-one] | < 100 nM
Cn1cc(-n2ccc(=O)c(Cc3cccc(-c4ncc(N5CCC6CCCCC6C5)cn4)c3)n2)cn1 (mixture of isomers) [Example 443, 1-(1-methyl-1H-pyrazol-4-yl)-3-{3-[5-(octahydroiso-quinolin-2(1H)-yl)pyrimidin-2-yl]benzyl}pyridazin-4(1H)-one] | < 100 nM
Cn1cc(-n2ccc(=O)c(Cc3cccc(-c4ncn(CCC5CCOC5)n4)c3)n2)cn1 (racemic) [Example 717, rac-1-(1-methyl-1H-pyrazol-4-yl)-3-(3-{1-[2-(tetrahydrofuran-3-yl)ethyl]-1H-1,2,4-triazol-3-yl}benzyl)pyridazin-4(1H)-one] | < 100 nM
O=c1ccn(-c2ccc(Cl)cc2)nc1Cc1ccc(O)cc1 [Example 754, 1-(4-Chlorophenyl)-3-(4-hydroxybenzyl)pyridazin-4(1H)-one] | 100 to 1000 nM
Cn1cc(-n2ccc(=O)c(Cc3cccc(-c4ncc(CCC(C)(C)O)cn4)c3)n2)cn1 [Example 437, 3-{3-[5-(3-hydroxy-3-methylbutyl)pyrimidin-2-yl]benzyl}-1-(1-methyl-1H-pyrazol-4-yl)pyridazin-4(1H)-one] | < 100 nM
Cc1cc(COc2cnc(-c3cccc(Cc4nn(-c5cnn(C)c5)ccc4=O)c3)nc2)no1 [Example 285, 3-(3-{5-[(5-methylisoxazol-3-yl)methoxy]pyrimidin-2-yl}benzyl)-1-(1-methyl-1H-pyrazol-4-yl)pyridazin-4(1H)-one] | < 100 nM
CCOc1cnc(-c2cccc(C(C)c3nn(-c4cnn(CCO)c4)ccc3=O)c2)nc1 (single isomer, unassigned) [Example 255, 3-{(1S or R)-1-[3-(5-Ethoxypyrimidin-2-yl)phenyl]ethyl}-1-[1-(2-hydroxyethyl)-1H-pyrazol-4-yl]pyridazin-4(1H)-one] | 100 to 1000 nM
Cn1cc(-n2ccc(=O)c(Cc3cccc(-c4ncc(O[C@H]5CC[C@@H](O)CC5)cn4)c3)n2)cn1 [Example 748, 3-(3-{5-[(cis-4-hydroxycyclohexyl)oxy]pyrimidin-2-yl}benzyl)-1-(1-methyl-1H-pyrazol-4-yl)pyridazin-4(1H)-one] | < 100 nM
CCOCC(O)COc1cnc(-c2cccc(Cc3nn(-c4cnn(C)c4)ccc3=O)c2)nc1 (racemic) [Example 370, rac-3-{3-[5-(3-ethoxy-2-hydroxypropoxy)pyrimidin-2-yl]benzyl}-1-(1-methyl-1H-pyrazol-4-yl)pyridazin-4(1H)-one] | < 100 nM
Cn1cc(-n2ccc(=O)c(Cc3ccc4[nH]c(=O)[nH]c4c3)n2)cn1 [Example 23, 5-{[1-(1-methyl-1H-pyrazol-4-yl)-4-oxo-1,4-dihydropyridazin-3-yl]methyl}-1,3-dihydro-2H-benzimidazol-2-one] | 100 to 1000 nM
Cn1cc(-n2ccc(=O)c(Cc3cccc(-c4ncc(-c5cncc(F)c5)cn4)c3)n2)cn1 [Example 414, 3-{3-[5-(5-fluoropyridin-3-yl)pyrimidin-2-yl]benzyl}-1-(1-methyl-1H-pyrazol-4-yl)pyridazin-4(1H)-one] | < 100 nM
Cn1cc(-n2ccc(=O)c(Cc3cccc(-c4ncc(OCCn5cccn5)cn4)c3)n2)cn1 [Example 265, 1-(1-methyl-1H-pyrazol-4-yl)-3-(3-{5-[2-(1H-pyrazol-1-yl)ethoxy]pyrimidin-2-yl}benzyl)pyridazin-4(1H)-one] | < 100 nM
Cc1nc(-c2cccc(Cc3nn(-c4cnn(C)c4)ccc3=O)c2)no1 [Example 42, 3-[3-(5-methyl-1,2,4-oxadiazol-3-yl)benzyl]-1-(1-methyl-1H-pyrazol-4-yl)pyridazin-4(1H)-one] | 100 to 1000 nM

The remaining lines, values ahead:

IC50 | Compound
1000 to 3000 nM | Cn1cc(-n2ccc(=O)c(Cc3cccc(-n4cccn4)c3)n2)cn1 [Example 21, 1-(1-methyl-1H-pyrazol-4-yl)-3-[3-(1H-pyrazol-1-yl)benzyl]pyridazin-4(1H)-one]
< 100 nM | Cn1cc(-n2ccc(=O)c(Cc3cccc(NC(=O)OCCCN4CCNCC4)c3)n2)cn1 [Example 626, 3-piperazin-1-ylpropyl (3-{[1-(1-methyl-1H-pyrazol-4-yl)-4-oxo-1,4-dihydropyridazin-3-yl]methyl}phenyl)carbamate]
< 100 nM | CCC(C)COC(=O)Nc1cccc(Cc2nn(-c3cnn(C)c3)ccc2=O)c1 (racemic) [Example 573, rac-2-methylbutyl (3-{[1-(1-methyl-1H-pyrazol-4-yl)-4-oxo-1,4-dihydropyridazin-3-yl]methyl}phenyl)carbamate]
< 100 nM | COCCOC(=O)Nc1cccc(Cc2nn(-c3cc(F)cc(C#N)c3)ccc2=O)c1 [Example 73, 2-methoxyethyl (3-{[1-(3-cyano-5-fluorophenyl)-4-oxo-1,4-dihydropyridazin-3-yl]methyl}phenyl)carbamate]
< 100 nM | N#Cc1cc(Cl)cc(-n2ccc(=O)c(Cc3cccc(NC(=O)OCC4CCOC4)c3)n2)c1 (racemic) [Example 141, rac-tetrahydrofuran-3-ylmethyl (3-{[1-(3-chloro-5-cyanophenyl)-4-oxo-1,4-dihydropyridazin-3-yl]methyl}phenyl)carbamate]
< 100 nM | CCOC(=O)Nc1cccc(Cc2nn(-c3cnn(CC)c3)ccc2=O)c1 [Example 109, ethyl (3-{[1-(1-ethyl-1H-pyrazol-4-yl)-4-oxo-1,4-dihydropyridazin-3-yl]methyl}phenyl)carbamate]
< 100 nM | O=C(Nc1cccc(Cc2nn(-c3cc(F)c(F)c(F)c3)ccc2=O)c1)OCC1CCC1 [Example 555, cyclobutylmethyl (3-{[4-oxo-1-(3,4,5-trifluorophenyl)-1,4-dihydropyridazin-3-yl]methyl}phenyl)carbamate]
< 100 nM | Cn1cc(-n2ccc(=O)c(Cc3cccc(NC(=O)OCCOC4CCCCC4)c3)n2)cn1 [Example 577, 2-(cyclohexyloxy)ethyl (3-{[1-(1-methyl-1H-pyrazol-4-yl)-4-oxo-1,4-dihydropyridazin-3-yl]methyl}phenyl)carbamate]
< 100 nM | Cn1cc(-n2ccc(=O)c(Cc3cccc(NC(=O)OCC4CCOCC4)c3)n2)cn1 [Example 541, tetrahydro-2H-pyran-4-ylmethyl (3-{[1-(1-methyl-1H-pyrazol-4-yl)-4-oxo-1,4-dihydropyridazin-3-yl]methyl}phenyl)carbamate]
< 100 nM | COCCOC(=O)Nc1cccc(Cc2nn(-c3cncc(C#N)c3)ccc2=O)c1 [Example 129, 2-methoxyethyl (3-{[1-(5-cyanopyridin-3-yl)-4-oxo-1,4-dihydropyridazin-3-yl]methyl}phenyl)carbamate]
< 100 nM | CCOc1cnc(-c2cccc(Cc3nn(-c4ccc(Br)c(F)c4)ccc3=O)c2)nc1 [Example 145, 1-(4-Bromo-3-fluorophenyl)-3-[3-(5-ethoxypyrimidin-2-yl)benzyl]pyridazin-4(1H)-one]
< 100 nM | CC1(COC(=O)Nc2cccc(Cc3nn(-c4cc(F)c(F)c(F)c4)ccc3=O)c2)COC1 [Example 560, (3-methyloxetan-3-yl)methyl (3-{[4-oxo-1-(3,4,5-trifluorophenyl)-1,4-dihydropyridazin-3-yl]methyl}phenyl)carbamate]
< 100 nM | CN1CCC(COc2cnc(-c3cccc(Cc4nn(-c5cccc(C#N)c5)ccc4=O)c3)nc2)CC1 [Example 171, 3-[3-(3-{5-[(1-methylpiperidin-4-yl)methoxy]pyrimidin-2-yl}benzyl)-4-oxopyridazin-1(4H)-yl]benzonitrile]
< 100 nM | CN(C)CCOC(=O)Nc1cccc(Cc2nn(-c3cc(F)c(F)c(F)c3)ccc2=O)c1 [Example 546, 2-(dimethylamino)ethyl (3-{[4-oxo-1-(3,4,5-trifluorophenyl)-1,4-dihydropyridazin-3-yl]methyl}phenyl)carbamate]
< 100 nM | CN(C)C(=O)CCOC(=O)Nc1cccc(Cc2nn(-c3cc(F)c(F)c(F)c3)ccc2=O)c1 [Example 561, 3-(dimethylamino)-3-oxopropyl (3-{[4-oxo-1-(3,4,5-trifluorophenyl)-1,4-dihydropyridazin-3-yl]methyl}phenyl)carbamate]
< 100 nM | CCCOC(=O)Nc1cccc(Cc2nn(-c3cccc(C#N)c3)ccc2=O)c1 [Example 580, propyl (3-{[1-(3-cyanophenyl)-4-oxo-1,4-dihydropyridazin-3-yl]methyl}phenyl)carbamate]
